Results on seven compounds are retold here after patent publication US20070031511A1, “Method of treatment” (priority 2003, published 2007).

Data set [1] has as its target T1, recombinant human progastrin6-80 (Homo sapiens, UniProt P01350).
T1 construct: made in house
T1 sequence (P01350 27-101): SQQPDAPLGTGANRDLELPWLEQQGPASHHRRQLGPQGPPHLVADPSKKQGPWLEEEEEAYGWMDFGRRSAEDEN
In words: Competition of metal ions with 59Fe3+ for binding to progastrin6-80. Conditions: metal ions 100 μM, 59Fe3+ 10 μM, progastrin6-80 5.6 μM. The procedure:
In order to determine the specificity of the interaction between progastrin and metal ions, the binding of metal ions to recombinant human progastrin6-80 was determined by measuring their ability to compete with radioactive ^59Fe^3+ for binding to the protein by the following methods (Baldwin et al, 2001).
Progastrin6-80 (5.6 μM) in pH 2.8 buffer (10 mM sodium formate, pH 2.8, 100 mM NaCl, 0.005% Tween 20) was incubated for 30 min at 4° C. with ^59Fe^3+ ions (10 μM, 23.6 cpm/pmol) in the presence of several di- and trivalent metal ions (100 μM). Excess radioactivity was removed by overnight dialysis (SpectraPor dialysis tubing, molecular weight cut-off 3,500, Spectrum Labs., Rancho Dominguez, Calif.) at 4° C. against pH 4.0 buffer (10 mM sodium acetate, pH 4.0, 100 mM NaCl, 0.005% Tween 20), containing 1 µM EDTA. The radioactivity associated with progastrin6-80 was determined by counting aliquots of the internal and external solutions in a γ-counter (LKB-Wallac, Turku, Finland).

For data set [2] the following is noted: read-out: Apparent first dissociation constant of complex with ferric ions, cited from earlier work.
The nature of data set [3]: Solubility of peptides in NMR sample preparation. Type of data set: physicochemical. Conditions: NMR sample conditions, pH 5.3. The procedure:
For the subsequent experiments, samples were prepared for NMR spectroscopy by dissolving 2.5 mg of peptide in 0.6 ml of 10% DMSO/10% ^2H2O/80% H2O at 278 K. The pH was adjusted with small amounts of 1M NaO^2H or ^2HCl to pH 5.3. ^1H chemical shifts were referenced to 2,2-dimethyl-2-silapenthane-5-sulfonate at 0 ppm via the chemical shift of the H2O resonance or an impurity at 0.15 ppm. NMR spectra were recorded on Bruker DRX-600 and AMX-500 instruments, as described previously (Barnham et al, 1999).
The peptides LE5AYG, LE5A, E5AY and E5A (approximately 2 mM) were dissolved in H2O with 5 or 10% ^2H2O. […] Sequence-specific ^1H NMR resonance assignments were made from two-dimensional nuclear Overhauser enhancement spectroscopy (NOESY) and total correlation spectroscopy (TOCSY).

The subject of data set [4] is IMGE-5 cells. In words: Wound healing / cell migration assay. Type of data set: cell-based, mice. Conditions: wound healing assay, fragments and mutants shown at 1 nM (FIGS. 7B, 8B). As to the method: (§1) The IMGE-5 cell line was established from the gastric mucosa of mice transgenic for a temperature-sensitive mutant of the SV40 large T antigen (Hollande et al, 2001). IMGE-5 cells were generally grown at 33° C. in DMEM containing 1 unit/ml γ-interferon, 10% FBS, 100 U/ml penicillin, and 100 μg/ml streptomycin (permissive conditions). For all experiments, cells were transferred to 39° C. in the same medium without […] (non-permissive conditions), where they display differentiated characteristics such as expression of functional adherens and tight junctions. All experiments have been performed on cells between passages 20 and 35.
In order to assess the effects of different stimuli on cell migration, wound healing experiments were performed as detailed elsewhere (Hollande et al, 1997). In brief, IMGE-5 cells were grown in 12-well plates in DMEM at 33° C. until they reached 80% confluence, then shifted to 39° C. and starved of serum for 24 h. The confluent monolayer was wounded using a 20 μl-pipette tip, and cells were then washed 3 times with phosphate-buffered saline (PBS: 2.7 mM KCl, 1.5 MM KH2PO4, 142 mM NaCl, and 10 mM Na2HPO4, pH 6.95) and treated with or without different compounds in DMEM with antibiotics. Morphology and migration of cells were observed and photographed immediately, and after treatment for 17 and 24 h. Wound width was measured at six different positions on the 24 h photographs, and averages calculated.

A short description of data set [5]: Quenching of peptide tryptophan fluorescence by ferric ions (stoichiometry, apparent Kd). In kind it is binding. Conditions: 10 mM sodium acetate pH 4.0, 100 mM NaCl, 0.005% Tween 20; mean ± S.E.; read-out: Kd (μM), apparent dissociation constant for ferric ions. The procedure:
The tryptophan fluorescence of peptide solutions was measured in 3 mL quartz cuvettes thermostated at […], with a Spex Fluorolog-2 spectrofluorimeter (Spex Industries, Edison, N.J.), with the excitation and emission wavelengths set at 290 and 345 nm, respectively. The quenching of tryptophan fluorescence induced by the binding of metal ions was used to calculate the fraction of binding sites occupied, fa: fa=(yf−y)/(yf−yb) where y is the fluorescence signal at a given concentration of metal ions and yb and yf are the signals when the binding sites are fully occupied and unoccupied, respectively (Winzor et al, 1995). The stoichiometry, p, and apparent dissociation constant, Kd, were then obtained, using the program Sigmastat (Jandel Scientific, San Rafael, Calif.), from the intercept and slope of a linear regression of the data transformed as described by Winzor and Sawyer (1995) in terms of the equation Cs/fa=pCa+Kd/(1−fa) where Cs is the total concentration of metal ions, and Ca is the total concentration of glycine-extended gastrin17. For the bismuth binding studies, the data was fitted by non-linear regression with the program Sigmaplot (Jandel Scientific, San Rafael, Calif.) to the equations for models with one binding site or two binding sites with identical affinities: fa=x/(Kd1+x) or to the model with two binding sites with different affinities: fa=(Kd1·x+Kd2·x+2x^2)/2(Kd1·Kd2+Kd1·x+Kd2·x+x^2) where x is the concentration of free metal ions, Kd1 is the first site dissociation constant and Kd2 is the second site dissociation constant. For the one-site model the value of x at any given total concentration of metal ions was obtained by exact solution of the appropriate quadratic (Malby et al, 2001). For the two-site models the value of x was obtained by an iterative Newton-Raphson procedure (Linse et al, 1991). Absorption Spectroscopy
The tryptophan fluorescence of progastrin6-80, glycine-extended gastrin17 and related peptides was measured in the presence of increasing concentrations of ferric ions in 10 mM sodium acetate, pH 4.0, 100 mM NaCl, 0.005% Tween 20. […] Values from the indicated number of independent experiments were combined to obtain the mean values (±S.E.) presented above. No binding of ferric ions to Ggly1-4 or Ggly12-18 was observed.
The tryptophan fluorescence of amidated gastrin17 and related peptides was measured in the presence of increasing concentrations of ferric ions at pH 4.0 (8). Values of the stoichiometry and the apparent dissociation constant (Kd) were obtained from linear transformations of the data presented in FIG. 20A by least squares fitting. Values from the indicated number of independent experiments were combined to obtain the mean values (±S.E.) presented above.

The subject of data set [6] is IMGE-5 cells. In words: IMGE-5 cell proliferation, MTT assay. In kind it is cell-based, mice. Conditions: MTT assay, peptides shown at 1 nM (FIGS. 7A, 8A). As to the method: as §1
A colorimetric assay was used to measure cell proliferation. Briefly, IMGE-5 cells were seeded in a 96-well plate at a density of 10^4 cells/well in DMEM containing 10% FBS and antibiotics. The following day, cells were synchronized in Go by incubation for 24 h in the same medium lacking FBS. The medium was replaced the next day with fresh medium containing 1% FBS and antibiotics and the peptides under investigation, and incubation was continued for 72 h. 15 μl of 5 mg/ml 3-(4,5-dimethylthiazol-2-yl)-2-5-diphenyltetrazolium bromide (MTT, Sigma, St Louis Mo.) was added per well, and the plate was incubated at 37° C. for 4 h before the medium was discarded. 200 μl 40 mM HCl in isopropanol was added to lyse the cells, and the absorbance at 570 nm was read on a BioRad Model 550 Microplate reader (BioRad, Hercules, Calif.).

The next data set deals with rectal mucosa. In words: Proliferation in the rectal mucosa of rectally defunctioned rats (metaphase-arrested cells). Type of data set: in vivo. Conditions: infused intraperitoneally 2.5 nmol/kg/hr, 4 weeks. As to the method: DFO (400 mg/kg) was administered intraperitoneally thrice weekly, and bismuth ions were administered as colloidal bismuth subcitrate (135 mg/kg/12 hours) by oral gavage 5 days per week. After 4 weeks, the rats were injected with vincristine to arrest cycling cells in metaphase, and sacrificed 3 hrs later. Crypt heights in the rectal mucosa, and the number of metaphase arrested cells per crypt, were then determined microscopically.

For data set [7] the following is noted: pH 4.0; Ref. 8 given in table; read-out: Kd (μM), apparent dissociation constant for ferric ions; cited from earlier work.

Like-named read-outs stand apart in the source and are kept apart here. Where a SMILES comes first, the peptide text is derived from it. Where no end group is shown, it is not given here. [ ]: non-standard residue; d: D form. pGlu = O=C1CC[C@@H](C(=O)O)N1

For the compound `[Fe+2]` [ferrous ions], in data set [1], the “Ability to compete with 59Fe3+ for binding to progastrin6-80” value is “able to compete effectively”.
For `O=C(O)CN(CC(=O)O)CC(=O)O` [nitrilotriacetic acid], the figures for the Kd in data set [2] (pH 4.0) and in data set [2] (pH 7.6) were 830 nM and 0.19 nM, respectively.
On to `CSCC[C@H](NC(=O)[C@H](Cc1c[nH]c2ccccc12)NC(=O)CNC(=O)[C@H](Cc1ccc(O)cc1)NC(=O)[C@H](C)NC(=O)[C@H](C)NC(=O)[C@H](C)NC(=O)[C@H](C)NC(=O)[C@H](C)NC(=O)[C@H](C)NC(=O)[C@H](CC(C)C)NC(=O)[C@H](Cc1c[nH]c2ccccc12)NC(=O)[C@@H]1CCCN1C(=O)CNC(=O)[C@@H]1CCC(=O)N1)C(=O)N[C@@H](CC(=O)O)C(=O)N[C@@H](Cc1ccccc1)C(=O)NCC(=O)O` [GglyE6-10A] ([pGlu]GPWLAAAAAAYGWMDFG-OH), for which the Solubility result in data set [3] is “Poor solubility”. Moreover, the “Stimulation of IMGE-5 cell migration” value in the data set with IMGE-5 cells [4] was “inactive”. For the same compound, the Kd in data set [5] was determined as 1.2 ± 0.11 µM. In addition, the “Stimulation of IMGE-5 cell proliferation” value in the data set on IMGE-5 cells [6] was “inactive”.
As for “GglyE7A: Ggly mutant, Glu7 replaced by Ala, SEQ ID NO:11 ([pGlu]GPWLEAEEEAYGWMDFG; ends and bridges not checked)”, in the data set on IMGE-5 cells [4], the “Stimulation of IMGE-5 cell migration” value was “inactive”. Also, the Kd in data set [5] is 0.2 ± 0.01 µM. For the same compound, the “Stimulation of rectal mucosal proliferation” value in the data set on rectal mucosa is on record as “able to stimulate mucosal proliferation as well as Ggly”. The “Stimulation of IMGE-5 cell proliferation” value in the data set with IMGE-5 cells [6] was “inactive”.
As for `[Fe+3]` [ferric ions], the “Ability to compete with 59Fe3+ for binding to progastrin6-80” value in data set [1] is given as “able to compete effectively”.
`CSCC[C@H](NC(=O)[C@H](Cc1c[nH]c2ccccc12)NC(=O)CNC(=O)[C@H](Cc1ccc(O)cc1)NC(=O)[C@H](C)NC(=O)[C@H](C)NC(=O)[C@H](C)NC(=O)[C@H](C)NC(=O)[C@H](CCC(=O)O)NC(=O)[C@H](CCC(=O)O)NC(=O)[C@H](CC(C)C)NC(=O)[C@H](Cc1c[nH]c2ccccc12)NC(=O)[C@@H]1CCCN1C(=O)CNC(=O)[C@@H]1CCC(=O)N1)C(=O)N[C@@H](CC(=O)O)C(=O)N[C@@H](Cc1ccccc1)C(=O)NCC(=O)O` [GglyE8-10A] ([pGlu]GPWLEEAAAAYGWMDFG-OH): the Solubility result in data set [3] is recorded as “Poor solubility”. Besides, the Kd in data set [5] was determined as 0.37 ± 0.07 µM. Also, the “Stimulation of IMGE-5 cell proliferation” value with IMGE-5 cells [6] is recorded as “active in proliferation assays, although less so than Ggly”.
Take “LE5AYGWMDFG (LEEEEEAYGWMDFG; listed as Homo sapiens) [Ggly5-18]”: the entries for the “Stimulation of IMGE-5 cell migration” value with IMGE-5 cells [4] and with IMGE-5 cells [4] (listed as LE5AYGWMDFG) were “to the same extent as Ggly” and “fully active”, respectively. The Kd in data set [7] is 0.58 ± 0.19 µM. The figures for the “Stimulation of IMGE-5 cell proliferation” value in the data set with IMGE-5 cells [6] and in the data set with IMGE-5 cells [6] (listed as LE5AYGWMDFG) were “to the same extent as Ggly” and “fully active”, respectively.
